Data from the supplement of paper PMC10883282.
± gives the standard deviation of the averaged measurements.

Experiments:
Test in all cases: relative viability vs DMSO control (72 h) (fraction); higher = more viable cells
A204 = system: A204
Method in brief: (§1)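 Serially diluted compound, 2.5 µl from source plates spanning 10 mM to 0.0002 mM, was added 24 h after sarcoma cell lines were seeded in 384-well plates at densities targeting 80–90% confluence. Plates then sat 72 h at 37 °C, 5% CO2, with 0.1% DMSO vehicle and a 5 µM positive control. Relative viability came from ATPLite as percent growth, averaged over up to triplicate wells, and was rescaled with 1 as full and 0 as none.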

HS729 = system: HS729
Method in brief: as §1

KHOS-NP = system: KHOS-NP
Method in brief: as §1

SW684 = system: SW684
Method in brief: as §1

SW872 = system: SW872
Method in brief: as §1

CCCS(=O)(=O)N[C@H]1C[C@@H](N(C)c2ncnc3[nH]ccc23)C1 [Abrocitinib]
relative viability
Details | A204 | HS729 | KHOS-NP | SW684 | SW872
0.00017 µM | 1.07 ± 0.059 | 0.926 ± 0.048 | 1.05 ± 0.037 | 1.11 ± 0.052 | 0.993 ± 0.046
0.00051 µM | 1.06 ± 0.072 | 0.935 ± 0.032 | 1.04 ± 0.015 | 1.12 ± 0.036 | 0.995 ± 0.05
0.00152 µM | 1.07 ± 0.047 | 0.937 ± 0.084 | 1.04 ± 0.015 | 1.12 ± 0.078 | 0.991 ± 0.029
0.00457 µM | 1.06 ± 0.069 | 0.951 ± 0.049 | 1.05 ± 0.023 | 1.15 ± 0.066 | 1 ± 0.046
0.01372 µM | 1.07 ± 0.053 | 0.94 ± 0.047 | 1.05 ± 0.0097 | 1.12 ± 0.036 | 1.01 ± 0.017
0.04115 µM | 1.07 ± 0.052 | 0.95 ± 0.027 | 1.04 ± 0.014 | 1.13 ± 0.03 | 1.03 ± 0.011
0.1235 µM | 1.07 ± 0.043 | 0.909 ± 0.03 | 1.06 ± 0.019 | 1.14 ± 0.054 | 1.02 ± 0.037
0.3704 µM | 1.07 ± 0.056 | 0.91 ± 0.025 | 1.04 ± 0.042 | 1.16 ± 0.075 | 1.02 ± 0.019
1.111 µM | 1.03 ± 0.067 | 0.941 ± 0.021 | 1.05 ± 0.042 | 1.11 ± 0.039 | 1.03 ± 0.014
3.333 µM | 1.01 ± 0.067 | 0.8836 ± 0.0067 | 1.04 ± 0.038 | 1.09 ± 0.056 | 1.01 ± 0.034
10 µM | 0.949 ± 0.034 | 0.892 ± 0.02 | 1.039 ± 0.0042 | 1.08 ± 0.066 | 1 ± 0.025

COc1cc2c(Oc3ccc4[nH]c(C)cc4c3F)ccnc2cc1OCC1(N)CC1 [Anlotinib]
relative viability
Details | A204 | HS729 | KHOS-NP | SW684 | SW872
0.00017 µM | 1.08 ± 0.028 | 0.944 ± 0.041 | 1.06 ± 0.017 | 1.15 ± 0.043 | 0.962 ± 0.05
0.00051 µM | 1.08 ± 0.015 | 0.908 ± 0.044 | 1.06 ± 0.022 | 1.09 ± 0.048 | 1.01 ± 0.022
0.00152 µM | 1.05 ± 0.042 | 0.951 ± 0.04 | 1.06 ± 0.045 | 1.11 ± 0.022 | 0.985 ± 0.049
0.00457 µM | 1.05 ± 0.038 | 0.917 ± 0.016 | 1.06 ± 0.019 | 1.11 ± 0.022 | 1 ± 0.036
0.01372 µM | 1.05 ± 0.041 | 0.935 ± 0.035 | 1.07 ± 0.026 | 1.12 ± 0.036 | 1.02 ± 0.044
0.04115 µM | 0.997 ± 0.035 | 0.909 ± 0.048 | 1.05 ± 0.038 | 1.14 ± 0.028 | 0.996 ± 0.045
0.1235 µM | 0.829 ± 0.042 | 0.911 ± 0.052 | 1.04 ± 0.04 | 1.13 ± 0.021 | 1.01 ± 0.048
0.3704 µM | 0.475 ± 0.014 | 0.795 ± 0.071 | 1.05 ± 0.035 | 1.11 ± 0.03 | 1 ± 0.064
1.111 µM | 0.36 ± 0.033 | 0.769 ± 0.025 | 1.04 ± 0.064 | 1.07 ± 0.017 | 0.957 ± 0.03
3.333 µM | 0.18 ± 0.0053 | 0.678 ± 0.051 | 0.735 ± 0.014 | 0.847 ± 0.034 | 0.676 ± 0.03
10 µM | 0.0656 ± 0.0024 | 0.383 ± 0.026 | 0.264 ± 0.011 | 0.502 ± 0.024 | 0.437 ± 0.013

CCN(CCCOc1ccc2c(Nc3cc(CC(=O)Nc4cccc(F)c4)[nH]n3)ncnc2c1)CCOP(=O)(O)O [Barasertib]
relative viability
Details | A204 | HS729 | KHOS-NP | SW684 | SW872
0.00017 µM | 1.05 ± 0.023 | 0.957 ± 0.065 | 1.03 ± 0.035 | 1.11 ± 0.028 | 1.01 ± 0.02
0.00051 µM | 1.05 ± 0.037 | 0.934 ± 0.057 | 1.03 ± 0.032 | 1.11 ± 0.028 | 1.01 ± 0.006
0.00152 µM | 1.05 ± 0.025 | 0.947 ± 0.025 | 1.04 ± 0.015 | 1.15 ± 0.054 | 0.9782 ± 0.0088
0.00457 µM | 1.04 ± 0.012 | 0.936 ± 0.032 | 1.048 ± 0.0078 | 1.15 ± 0.025 | 0.985 ± 0.017
0.01372 µM | 0.9872 ± 0.0047 | 0.901 ± 0.03 | 1.05 ± 0.029 | 1.12 ± 0.022 | 0.975 ± 0.012
0.04115 µM | 0.907 ± 0.051 | 0.934 ± 0.067 | 1.072 ± 0.005 | 1.04 ± 0.034 | 0.962 ± 0.031
0.1235 µM | 0.859 ± 0.053 | 0.877 ± 0.088 | 1.08 ± 0.023 | 1.06 ± 0.04 | 0.897 ± 0.03
0.3704 µM | 0.813 ± 0.047 | 0.801 ± 0.13 | 1.09 ± 0.021 | 1.11 ± 0.028 | 0.918 ± 0.017
1.111 µM | 0.7 ± 0.037 | 0.8 ± 0.12 | 1.11 ± 0.017 | 1.08 ± 0.044 | 0.912 ± 0.027
3.333 µM | 0.441 ± 0.028 | 0.815 ± 0.077 | 1.12 ± 0.013 | 0.977 ± 0.038 | 0.892 ± 0.022
10 µM | 0.379 ± 0.022 | 0.804 ± 0.032 | 1.13 ± 0.007 | 0.816 ± 0.019 | 0.8645 ± 0.0036

COc1cc(Nc2c(C#N)cnc3cc(OCCCN4CCN(C)CC4)c(OC)cc23)c(Cl)cc1Cl [Bosutinib]
relative viability
Details | A204 | HS729 | KHOS-NP | SW684 | SW872
0.00017 µM | 1.09 ± 0.039 | 1.06 ± 0.082 | 1.08 ± 0.017 | 1.24 ± 0.013 | 1.1 ± 0.026
0.00051 µM | 1.12 ± 0.02 | 1.04 ± 0.08 | 1.12 ± 0.015 | 1.25 ± 0.013 | 1.131 ± 0.0085
0.00152 µM | 1.09 ± 0.07 | 1.1 ± 0.029 | 1.13 ± 0.025 | 1.306 ± 0.0093 | 1.12 ± 0.029
0.00457 µM | 1.13 ± 0.049 | 1.05 ± 0.031 | 1.11 ± 0.016 | 1.27 ± 0.02 | 1.12 ± 0.03
0.01372 µM | 1.17 ± 0.036 | 1.07 ± 0.046 | 1.117 ± 0.011 | 1.25 ± 0.026 | 1.12 ± 0.015
0.04115 µM | 1.21 ± 0.014 | 1.05 ± 0.041 | 1.11 ± 0.02 | 1.28 ± 0.052 | 1.123 ± 0.011
0.1235 µM | 1.23 ± 0.015 | 0.978 ± 0.091 | 1.1 ± 0.044 | 1.33 ± 0.053 | 1.085 ± 0.01
0.3704 µM | 1.21 ± 0.069 | 0.922 ± 0.094 | 1.01 ± 0.017 | 1.31 ± 0.046 | 0.984 ± 0.029
1.111 µM | 1.111 ± 0.01 | 0.773 ± 0.038 | 0.837 ± 0.044 | 1.05 ± 0.018 | 0.727 ± 0.024
3.333 µM | 0.807 ± 0.087 | 0.79 ± 0.055 | 0.482 ± 0.033 | 0.6 ± 0.031 | 0.555 ± 0.065
10 µM | 0.259 ± 0.04 | 0.107 ± 0.11 | 0.264 ± 0.019 | 0.101 ± 0.0037 | 0.0547 ± 0.0073

COc1cc2nccc(Oc3ccc(NC(=O)C4(C(=O)Nc5ccc(F)cc5)CC4)cc3)c2cc1OC [Cabozantinib]
relative viability
Details | A204 | HS729 | KHOS-NP | SW684 | SW872
0.00017 µM | 1.04 ± 0.053 | 1.1 ± 0.023 | 1.07 ± 0.027 | 1.17 ± 0.034 | 1.08 ± 0.033
0.00051 µM | 1.1 ± 0.073 | 0.966 ± 0.056 | 1.09 ± 0.026 | 1.19 ± 0.024 | 1.1 ± 0.041
0.00152 µM | 1.06 ± 0.073 | 0.973 ± 0.062 | 1.1 ± 0.012 | 1.2 ± 0.035 | 1.08 ± 0.034
0.00457 µM | 1.06 ± 0.04 | 0.928 ± 0.049 | 1.06 ± 0.022 | 1.2 ± 0.047 | 1.11 ± 0.062
0.01372 µM | 0.9735 ± 0.0068 | 0.9662 ± 0.0076 | 1.09 ± 0.036 | 1.21 ± 0.032 | 1.06 ± 0.069
0.04115 µM | 0.785 ± 0.064 | 0.897 ± 0.076 | 1.07 ± 0.033 | 1.121 ± 0.01 | 1.05 ± 0.021
0.1235 µM | 0.428 ± 0.038 | 0.83 ± 0.049 | 1.08 ± 0.014 | 0.945 ± 0.044 | 1.06 ± 0.075
0.3704 µM | 0.378 ± 0.023 | 0.749 ± 0.027 | 1.07 ± 0.031 | 0.848 ± 0.029 | 1.01 ± 0.075
1.111 µM | 0.341 ± 0.037 | 0.64 ± 0.03 | 1.04 ± 0.035 | 0.852 ± 0.045 | 0.931 ± 0.029
3.333 µM | 0.312 ± 0.028 | 0.504 ± 0.025 | 0.924 ± 0.016 | 0.652 ± 0.046 | 0.626 ± 0.023
10 µM | 0.229 ± 0.0041 | 0.288 ± 0.037 | 0.586 ± 0.064 | 0.38 ± 0.085 | 0.4 ± 0.035
